pKi: −log10 of the molar value. Values after ≈ are worked out from the molar mass of the structure shown.
Assays:
[1] = exposure of the anhydrous form to pure water (XRPD of solids); assay type: physicochemical
Method: To an Eppendorf tube was added 1 mL USP water and 20 mg 3-(5-methylisoxazol-3-yl)-6-(1-methyl-1,2, 3-triazol-4-yl)methyloxy-1,2, 4-triazolo[3,4-a]phthalazine. The resulting suspension was vortexed for 10 seconds, then light protected with aluminium foil and placed on a rotary mixer for 72 hours. The solids were then vacuum filtered off and rinsed with 2xl mL water. Solids were partially wet when first analyzed by XRPD, afterward they were dried by house vacuum for 48 hours before more XRPD analysis.
The XRPD data have been described earlier with the exception of the incompletely converted material from the synthesis in water. […] Conversion may take place more rapidly if solubility is increased by the addition of di-sodium pamoate or by other means. The di-hydrate may also be prepared using a 10% solution of MeCN in water.

receptor = receptor occupancy at the minimum effective dose; assay type: in vivo, rat; conditions: at the minimum effective dose of 0.3 mg/kg
rat = rat water maze test (cognition enhancement); assay type: in vivo
[2] = time dependent solubility in 2.5% aqueous di-sodium pamoate solution by HPLC; assay type: physicochemical
Method: To a stirred, light protected glass vial was added 23.0 mL 2.5% aqueous di-sodium pamoate solution and 42 mg 3-(5-methylisoxazol-3-yl)-6-(1-methyl-1,2,3-triazol-4-yl)methyloxy-1,2,4-triazolo[3,4-a]phthalazine. Aliquots were removed by 3 mL syringe at various time intervals, passed through 0.22 μm Millex-GV low protein binding syringe filters, and diluted to appropriate concentrations with 50/50 MeCN/H2O for HPLC analysis.

[3] = target: T1, human GABAA receptors containing the α5 subunit stably expressed in Ltk cells (Homo sapiens, UniProt P18507+P31644); assay: displacement of [3H]-flumazenil ([3H]Ro 15-1788) from the benzodiazepine binding site; conditions: read-out: Ki value for displacement of [3H]Ro 15-1788 from the α5 subunit of the human GABAA receptor
T1 construct: expressed in transfected cells; host or cells: Ltk cells (mouse fibroblasts), stably expressing
T1 sequence (P31644 32-462): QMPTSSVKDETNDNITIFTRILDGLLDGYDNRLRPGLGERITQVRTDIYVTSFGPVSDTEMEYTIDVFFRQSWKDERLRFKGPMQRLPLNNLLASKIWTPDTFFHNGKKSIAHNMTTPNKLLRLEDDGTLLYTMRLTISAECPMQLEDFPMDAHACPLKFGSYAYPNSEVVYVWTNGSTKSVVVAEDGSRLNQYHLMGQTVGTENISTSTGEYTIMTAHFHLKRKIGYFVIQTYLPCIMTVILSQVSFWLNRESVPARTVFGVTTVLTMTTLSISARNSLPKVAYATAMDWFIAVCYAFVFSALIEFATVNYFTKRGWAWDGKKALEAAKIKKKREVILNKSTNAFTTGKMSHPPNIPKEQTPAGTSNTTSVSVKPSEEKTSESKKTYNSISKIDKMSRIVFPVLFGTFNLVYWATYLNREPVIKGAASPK
T1 sequence (P18507 40-467 limits assumed): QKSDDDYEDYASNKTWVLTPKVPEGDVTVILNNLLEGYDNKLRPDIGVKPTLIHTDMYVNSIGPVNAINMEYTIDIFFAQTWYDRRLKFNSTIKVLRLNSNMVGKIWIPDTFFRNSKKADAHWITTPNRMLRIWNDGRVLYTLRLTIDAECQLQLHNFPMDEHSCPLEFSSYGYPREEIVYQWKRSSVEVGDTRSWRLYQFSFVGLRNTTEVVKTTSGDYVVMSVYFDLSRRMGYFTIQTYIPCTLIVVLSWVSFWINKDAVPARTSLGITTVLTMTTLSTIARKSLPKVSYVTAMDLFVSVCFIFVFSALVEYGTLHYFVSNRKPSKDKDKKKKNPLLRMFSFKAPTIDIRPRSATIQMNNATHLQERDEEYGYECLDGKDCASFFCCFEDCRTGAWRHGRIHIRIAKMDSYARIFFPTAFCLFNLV
T1 sequence (P28472 26-473 partner): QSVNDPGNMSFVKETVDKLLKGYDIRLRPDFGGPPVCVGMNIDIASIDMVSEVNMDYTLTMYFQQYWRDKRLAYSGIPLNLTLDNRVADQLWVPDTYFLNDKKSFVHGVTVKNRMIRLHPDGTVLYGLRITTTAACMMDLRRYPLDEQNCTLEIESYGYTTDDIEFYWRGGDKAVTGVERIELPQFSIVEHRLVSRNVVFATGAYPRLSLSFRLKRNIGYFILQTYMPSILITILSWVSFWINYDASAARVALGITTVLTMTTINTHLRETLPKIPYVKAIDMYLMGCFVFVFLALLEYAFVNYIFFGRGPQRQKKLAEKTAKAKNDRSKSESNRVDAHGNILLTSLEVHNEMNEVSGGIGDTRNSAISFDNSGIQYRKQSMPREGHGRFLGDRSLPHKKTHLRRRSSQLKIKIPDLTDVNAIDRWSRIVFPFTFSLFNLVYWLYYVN

solubility in pure water [1]	solubility at 5 minutes ([2]; 2.5% aqueous di-sodium pamoate solution, aqueous with cosolvent or surfactant or cyclodextrin, thermodynamic from solid, 5 minutes (0.08 h), read-out: Concentration (solubility by HPLC))	solubility at 90 minutes ([2]; 2.5% aqueous di-sodium pamoate solution, aqueous with cosolvent or surfactant or cyclodextrin, thermodynamic from solid, 90 minutes (1.50 h), read-out: Concentration (solubility by HPLC))	solubility at 930 minutes ([2]; 2.5% aqueous di-sodium pamoate solution, aqueous with cosolvent or surfactant or cyclodextrin, thermodynamic from solid, 930 minutes (15.5 h), read-out: Concentration (solubility by HPLC))	solubility at 1500 minutes ([2]; 2.5% aqueous di-sodium pamoate solution, aqueous with cosolvent or surfactant or cyclodextrin, thermodynamic from solid, 1500 minutes (25.0 h), read-out: Concentration (solubility by HPLC))	solubility at 2910 minutes ([2]; 2.5% aqueous di-sodium pamoate solution, aqueous with cosolvent or surfactant or cyclodextrin, thermodynamic from solid, 2910 minutes (48.5 h), read-out: Concentration (solubility by HPLC))	% of 5 Minute Value ([2]; 5 minutes (0.08 h))	% of 5 Minute Value ([2]; 90 minutes (1.50 h))	% of 5 Minute Value ([2]; 930 minutes (15.5 h))	% of 5 Minute Value ([2]; 1500 minutes (25.0 h))	% of 5 Minute Value ([2]; 2910 minutes (48.5 h))	decrease in solubility over time, % of the original solubility after 5 minutes ([2]; summary of Table 1)	pKi [3]	melting point	Compound	receptor occupancy (receptor)	minimum effective dose (rat)	enhancement of cognition (rat; demonstrated at 0.3 mg/kg and 3 mg/kg)
extreme insolubility	1890 µg/mL (≈ 5.22 mM)	1920 µg/mL (≈ 5.3 mM)	1410 µg/mL (≈ 3.89 mM)	1290 µg/mL (≈ 3.56 mM)	1240 µg/mL (≈ 3.42 mM)	100.0%	101.4%	74.5%	68.0%	65.4%	~65%	≥ 7.00	–	Cc1cc(-c2nnc3c4ccccc4c(OCc4cn(C)nn4)nn23)no1 [L-822, 179, 3-(5-methylisoxazol-3-yl)-6-(1-methyl-1,2,3-triazol-4-yl)methyloxy-1,2,4-triazolo[3,4-a]phthalazine]	40%	0.3 mg/kg	enhance cognition
–	–	–	–	–	–	–	–	–	–	–	–	–	247.5 to 249 °C	Cc1cc(-c2nnc3c4ccccc4c(OCc4cccc(Br)n4)nn23)no1 [compound 2, 6-(6-Bromopyridin-2-yl)methyloxy-3-(5-methylisoxazol-3-yl)-1,2,4-triazolo[3,4-a]phthalazine]	–	–	–

From patent publication US6534505B2, “Therapeutic polymorphs of a GABA-A alpha-5 inverse agonist and pamoate formulations of the same” (Merck & Co., Inc., priority 1998, dated 2003)
